Test results taken from patent US10131652B2, “Pyrimidinyloxy benzene derivatives as herbicides” (E. I. DU PONT DE NEMOURS AND COMPANY, priority 2014, dated 2018).

Experiments:
Format in all cases: in vivo
[1] = system: Italian ryegrass (Lolium multiflorum); experiment: Test B pre-/postemergence plant response
How it was run: (§1)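 Seeds in loam–sand blend given preemergence soil spray; separately, plants at one- to two-leaf stage (2–10 cm) sprayed postemergence, compounds in non-phytotoxic solvent with surfactant. Injury rated visually versus untreated controls after ~10 days in greenhouse, 0 (no effect) to 100 (complete control).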

[2] = system: barnyardgrass (Echinochloa crus-galli); experiment: Test B pre-/postemergence plant response
How it was run: as §1

corn (Zea mays) = experiment: Test B pre-/postemergence plant response
How it was run: as §1

[3] = system: giant foxtail (Setaria faberii); experiment: Test B pre-/postemergence plant response
How it was run: as §1

kochia (Kochia scoparia) = experiment: Test B pre-/postemergence plant response
How it was run: as §1

[4] = system: pigweed (Amaranthus retroflexus); experiment: Test B pre-/postemergence plant response
How it was run: as §1

[5] = system: ragweed (common ragweed, Ambrosia elatior); experiment: Test B pre-/postemergence plant response
How it was run: as §1

[6] = system: wheat (Triticum aestivum); experiment: Test B pre-/postemergence plant response
How it was run: as §1

[7] = system: blackgrass (Alopecurus myosuroides); experiment: Test B postemergence plant response
How it was run: (§2)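 Weeds grown in loam soil/sand pots were sprayed postemergence at 2 to 10 cm height, one- to two-leaf stage. After approximately 10 days in greenhouse, injury was rated visually against untreated controls on a 0 (no effect) to 100 (complete control) scale; dash means no test result.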

[8] = system: galium (catchweed bedstraw, Galium aparine); experiment: Test B postemergence plant response
How it was run: as §2

[9] = system: barnyardgrass (Echinochloa crus-galli); experiment: Test C flooded paddy test plant response; conditions: Flood, 250 g ai/ha; scale of 0 to 100 where 0 is no effect and 100 is complete control; 13 to 15 days
How it was run: (§3)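 Flooded-pot format, 3 cm water over soil maintained for the test duration; test compounds dispensed into the water at the 2-leaf stage. Greenhouse holding 13 to 15 days. Plants evaluated visually relative to untreated controls, 0 meaning no effect and 100 complete control.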

[10] = system: ducksalad (Heteranthera limosa); experiment: Test C flooded paddy test plant response; conditions: Flood, 250 g ai/ha; scale of 0 to 100 where 0 is no effect and 100 is complete control; 13 to 15 days
How it was run: as §3

rice (Oryza sativa) = experiment: Test C flooded paddy test plant response; conditions: Flood, 250 g ai/ha; scale of 0 to 100 where 0 is no effect and 100 is complete control; 13 to 15 days
How it was run: as §3

[11] = system: small-flower umbrella sedge (Cyperus difformis); experiment: Test C flooded paddy test plant response; conditions: Flood, 250 g ai/ha; scale of 0 to 100 where 0 is no effect and 100 is complete control; 13 to 15 days
How it was run: as §3

[12] = Postemergence, 1000 g ai/ha, 0 to 100 scale (0 no effect, 100 complete control)
[13] = Preemergence, 1000 g ai/ha, 0 to 100 scale (0 no effect, 100 complete control)
[14] = 31 g ai/ha, Preemergence, 0 to 100 scale where 0 is no effect and 100 is complete control
[15] = 125 g ai/ha, postemergence, 0 to 100 scale, 0 no effect, 100 complete control
[16] = Postemergence, 31 g ai/ha, 0 to 100 scale (0 no effect, 100 complete control)
[17] = Preemergence, 125 g ai/ha, 0 to 100 scale (0 no effect, 100 complete control)

Row | SMILES | Barnyardgrass plant response rating [9] | Ducksalad plant response rating [10] | Rice plant response rating (rice (Oryza sativa)) | Sedge, Umbrella plant response rating [11] | Plant response rating, Ryegrass, Italian [1, 14] | Plant response rating, Ryegrass, Italian [1, 15] | Plant response rating, Ryegrass, Italian [1, 16] | Ryegrass, Italian plant response rating [1, 17] | Plant response rating, Barnyardgrass [2, 14] | Plant response rating, Barnyardgrass [2, 15] | Plant response rating, Barnyardgrass [2, 16] | Barnyardgrass plant response rating [2, 17] | Plant response rating, Corn (corn (Zea mays); [15]) | Plant response rating, Corn (corn (Zea mays); [16]) | Plant response rating, Foxtail, Giant [3, 14] | Plant response rating, Foxtail, Giant [3, 15] | Plant response rating, Foxtail, Giant [3, 16] | Foxtail, Giant plant response rating [3, 17] | Plant response rating, Kochia (kochia (Kochia scoparia); [14]) | Plant response rating, Kochia (kochia (Kochia scoparia); [15]) | other results
1 | Cc1cnc(Oc2ccccc2-c2cc(Cl)sn2)nc1 [Compound 194] | 0 | 80 | 0 | 0 |  |  |  |  |  |  |  |  |  |  |  |  |  |  |  |  | Plant response rating, Ryegrass, Italian [1, 12]: 50; Plant response rating, Ryegrass, Italian [1, 13]: 50; Plant response rating, Barnyardgrass [2, 12]: 100; Plant response rating, Barnyardgrass [2, 13]: 100; Plant response rating, Corn (corn (Zea mays); [12]): 60; Plant response rating, Foxtail, Giant [3, 12]: 90; Plant response rating, Foxtail, Giant [3, 13]: 100; Plant response rating, Kochia (kochia (Kochia scoparia); [12]): 100; Plant response rating, Kochia (kochia (Kochia scoparia); [13]): 100; Plant response rating, Pigweed [4, 12]: 90; Plant response rating, Pigweed [4, 13]: 100; Plant response rating, Ragweed [5, 12]: 80; Plant response rating, Ragweed [5, 13]: 30; Plant response rating, Wheat [6, 12]: 20; Plant response rating, Blackgrass [7, 12]: 90; Plant response rating, Galium [8, 12]: 100
2 | Clc1cnc(Oc2ccccc2-c2cnccn2)nc1 [Compound 163] | 0 | 0 | 0 | 0 | 0 | 0 | 0 | 0 | 0 | 0 | 0 | 0 | 10 | 0 | 0 | 10 | 0 | 0 | 0 | 50 | Plant response rating, Kochia (kochia (Kochia scoparia); [16]): 10; Kochia plant response rating (kochia (Kochia scoparia); [17]): 0; Plant response rating, Pigweed [4, 14]: 0; Plant response rating, Pigweed [4, 15]: 30; Plant response rating, Pigweed [4, 16]: 20; Pigweed plant response rating [4, 17]: 30; Plant response rating, Ragweed [5, 14]: 0; Plant response rating, Ragweed [5, 15]: 30; Plant response rating, Ragweed [5, 16]: 30; Ragweed plant response rating [5, 17]: 40; Plant response rating, Wheat [6, 15]: 0; Plant response rating, Wheat [6, 16]: 0; Plant response rating, Blackgrass [7, 15]: 20; Plant response rating, Blackgrass [7, 16]: 20; Plant response rating, Galium [8, 15]: 30; Plant response rating, Galium [8, 16]: 20
3 | Fc1cnc(Oc2ccccc2-c2cc(C(F)F)no2)nc1 [Compound 210] | 0 | 85 | 0 | 40 | 0 | 0 | 0 | 10 | 10 | 0 | 0 | 80 | 10 | 0 | 40 | 40 | 0 | 90 | 50 | 80 | Plant response rating, Kochia (kochia (Kochia scoparia); [16]): 50; Kochia plant response rating (kochia (Kochia scoparia); [17]): 90; Plant response rating, Pigweed [4, 14]: 100; Plant response rating, Pigweed [4, 15]: 80; Plant response rating, Pigweed [4, 16]: 50; Pigweed plant response rating [4, 17]: 100; Plant response rating, Ragweed [5, 14]: 0; Plant response rating, Ragweed [5, 15]: 30; Plant response rating, Ragweed [5, 16]: 10; Ragweed plant response rating [5, 17]: 20; Plant response rating, Wheat [6, 15]: 20; Plant response rating, Wheat [6, 16]: 0; Plant response rating, Blackgrass [7, 15]: 30; Plant response rating, Blackgrass [7, 16]: 10; Plant response rating, Galium [8, 15]: 90; Plant response rating, Galium [8, 16]: 50
4 | N#Cc1cc(-c2ccccc2Oc2ncc(Cl)cn2)on1 [Compound 223] | 0 | 65 | 0 | 70 | 0 | 0 | 0 | 0 | 0 | 10 | 0 | 0 | 0 | 0 | 0 | 10 | 0 | 0 | 0 | 10 | Plant response rating, Kochia (kochia (Kochia scoparia); [16]): 0; Kochia plant response rating (kochia (Kochia scoparia); [17]): 0; Plant response rating, Pigweed [4, 14]: 0; Plant response rating, Pigweed [4, 15]: 60; Plant response rating, Pigweed [4, 16]: 20; Pigweed plant response rating [4, 17]: 10; Plant response rating, Ragweed [5, 14]: 0; Plant response rating, Ragweed [5, 15]: 10; Plant response rating, Ragweed [5, 16]: 0; Ragweed plant response rating [5, 17]: 0; Plant response rating, Wheat [6, 15]: 0; Plant response rating, Wheat [6, 16]: 0; Plant response rating, Blackgrass [7, 15]: 0; Plant response rating, Blackgrass [7, 16]: 0; Plant response rating, Galium [8, 15]: 50; Plant response rating, Galium [8, 16]: 30
